According to US8410117B2, “Imidazopyrimidine derivatives” (Hoffmann-La Roche Inc., priority 2010, dated 2013):

Biological target: T1, human PDE10A (Homo sapiens, UniProt Q9Y233)
T1 construct: The human PDE10A full length assay; purchased Enzo Life Science, Lausen, Switzerland SE-534
Experiment: human PDE10A full length Scintillation Proximity Assay (SPA)
Assay type: biochemical
Conditions: 50 nM cGMP and 50 nM [3H]-cGMP, 20 minutes at room temperature; read-out: PDE10A inhibition IC50
Procedure: The following test was carried out in order to determine the activity of the compounds of the present invention. PDE10 activity of the compounds of the present invention was determined using a Scintillation Proximity Assay (SPA)-based method similar to the one previously described (Fawcett, L. et al., Proc Natl Acad Sci USA (2000) 97(7):3702-3707).
The human PDE10A full length assay was performed in 96-well micro titer plates. The reaction mixture of 50 μl contained 20 mM HEPES pH=7.5/10 mM MgCl2/0.05 mg/ml BSA (Sigma cat. #A-7906), 50 nM cGMP (Sigma, cat. #G6129) and 50 nM [^3H]-cGMP (GE Healthcare, cat. #TRK392 S.A. 13.2 Ci/mmol), 3.75 ng/well PDE10A enzyme (Enzo Life Science, Lausen, Switzerland cat #SE-534) with or without a specific test compound. A range of concentrations of the potential inhibitor was used to generate data for calculating the concentration of inhibitor resulting in 50% of the effect (e.g. IC50, the concentration of the competitor inhibiting PDE10A activity by 50%). Non-specific activity was tested without the enzyme. The reaction was initiated by the addition of the substrate solution (cGMP and [^3H]-cGMP) and allowed to progress for 20 minutes at room temperature. The reaction was terminated by adding 25 μl of YSi-SPA scintillation beads (GE Healthcare, cat. #RPNQ0150) in 18 mM zinc sulphate solution (stop reagent). After 1 h under shaking, the plate was centrifuged one minute at 170 g to allow beads to settle. Afterwards, radioactive counts were measured on a Perkin Elmer TopCount Scintillation plate reader.

T1 sequence (Q9Y233 1-779 isoform Q9Y233-1): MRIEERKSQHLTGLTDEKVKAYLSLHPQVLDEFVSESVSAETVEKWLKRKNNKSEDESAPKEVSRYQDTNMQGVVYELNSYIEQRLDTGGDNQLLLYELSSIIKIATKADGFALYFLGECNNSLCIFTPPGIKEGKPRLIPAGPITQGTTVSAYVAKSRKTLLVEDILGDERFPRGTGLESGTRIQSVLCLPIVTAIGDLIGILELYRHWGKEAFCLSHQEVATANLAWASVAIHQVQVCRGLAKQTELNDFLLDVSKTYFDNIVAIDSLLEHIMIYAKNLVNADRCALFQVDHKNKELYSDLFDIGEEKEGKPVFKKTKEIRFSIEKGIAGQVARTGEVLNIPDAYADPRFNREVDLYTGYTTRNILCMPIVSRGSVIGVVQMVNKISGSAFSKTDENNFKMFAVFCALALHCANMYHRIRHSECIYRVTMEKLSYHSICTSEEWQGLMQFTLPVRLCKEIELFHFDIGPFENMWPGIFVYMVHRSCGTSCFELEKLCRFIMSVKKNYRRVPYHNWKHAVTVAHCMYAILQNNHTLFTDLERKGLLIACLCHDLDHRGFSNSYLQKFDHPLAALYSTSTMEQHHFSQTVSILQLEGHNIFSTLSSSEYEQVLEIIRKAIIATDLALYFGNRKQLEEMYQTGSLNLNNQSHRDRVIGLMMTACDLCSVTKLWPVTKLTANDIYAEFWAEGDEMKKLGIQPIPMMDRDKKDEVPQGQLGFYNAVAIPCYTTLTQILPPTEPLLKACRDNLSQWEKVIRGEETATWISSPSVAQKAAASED

SMILES | IC50
O=C(Nc1ccn2cc(-c3ccccc3)nc2n1)c1cc([N+](=O)[O-])nn1C1CCCC1 [Example 14, 2-Cyclopentyl-5-nitro-2H-pyrazole-3-carboxylic acid (2-phenyl-imidazo[1,2-a]pyrimidin-7-yl)-amide] | 125 nM
CCN(C)C(=O)c1cnn(C)c1C(=O)Nc1ccn2cc(-c3cccc(OC)c3)nc2n1 [Example 87, N-4-ethyl-N5-(2-(3-methoxyphenyl)imidazo[1,2-a]pyrimidin-7-yl)-N-4,1-dimethyl-1H-pyrazole-4,5-dicarboxamide] | 5.5 nM
COc1cccc(-c2cn3ccc(NC(=O)c4c(C(=O)N5CC(F)C5)cnn4C)nc3n2)c1 [Example 98, 4-(3-Fluoro-azetidine-1-carbonyl)-2-methyl-2H-pyrazole-3-carboxylic acid [2-(3-methoxy-phenyl)-imidazo[1,2-a]pyrimidin-7-yl]-amide] | 14.7 nM
CN(C)C(=O)c1cnn(C)c1C(=O)Nc1ccn2cc(-c3cccc(OCCF)c3)nc2n1 [Example 102, 2-Methyl-2H-pyrazole-3,4-dicarboxylic acid 4-dimethylamide 3-({2-[3-(2-fluoro-ethoxy)-phenyl]-imidazo[1,2-a]pyrimidin-7-yl}-amide)] | 27.9 nM
CN(C)C(=O)c1cnn(C)c1C(=O)Nc1ccn2cc(-c3ccccc3)nc2n1 [Example 75, 2-Methyl-2H-pyrazole-3,4-dicarboxylic acid 4-dimethylamide 3-[(2-phenyl-imidazo[1,2-a]pyrimidin-7-yl)-amide]] | 4.9 nM
Cn1ncc(C(=O)NCC(F)(F)F)c1C(=O)Nc1ccn2cc(-c3ccccc3)nc2n1 [Example 130, 1-methyl-N5-(2-phenylimidazo[1,2-a]pyrimidin-7-yl)-N4-(2,2,2-trifluoroethyl)-1H-pyrazole-4,5-dicarboxamide] | 34.9 nM
Cc1nc(CNC(=O)c2cnn(C)c2C(=O)Nc2ccn3cc(-c4ccccc4)nc3n2)cs1 [Example 163, 1-methyl-N4-((2-methylthiazol-4-yl)methyl)-N5-(2-phenylimidazo[1,2-a]pyrimidin-7-yl)-1H-pyrazole-4,5-dicarboxamide] | 636 nM
CCCn1ncc(Cl)c1C(=O)Nc1ccn2cc(-c3ccccc3)nc2n1 [Example 8, 4-Chloro-2-propyl-2H-pyrazole-3-carboxylic acid (2-phenyl-imidazo[1,2-a]pyrimidin-7-yl)-amide] | 64.7 nM
Cn1ncc(C(=O)N2CCC2)c1C(=O)Nc1ccn2cc(-c3cccc(F)c3)nc2n1 [Example 91, 4-(Azetidine-1-carbonyl)-2-methyl-2H-pyrazole-3-carboxylic acid [2-(3-fluoro-phenyl)-imidazo[1,2-a]pyrimidin-7-yl]-amide] | 6.1 nM
Cn1ncc(C(=O)NCc2cc(C3CC3)[nH]n2)c1C(=O)Nc1ccn2cc(-c3ccccc3)nc2n1 [Example 152, N4-((5-cyclopropyl-1H-pyrazol-3-yl)methyl)-1-methyl-N5-(2-phenylimidazo[1,2-a]pyrimidin-7-yl)-1H-pyrazole-4,5-dicarboxamide] | 302 nM
Cc1cccc(C(=O)Nc2ccn3cc(-c4ccccc4)nc3n2)n1 [Example 25, 6-Methyl-pyridine-2-carboxylic acid (2-phenyl-imidazo[1,2-a]pyrimidin-7-yl)-amide] | 324 nM
Cn1ncc(C(=O)N2CC(F)(F)C2)c1C(=O)Nc1ccn2cc(-c3ccccc3)nc2n1 [Example 34, 4-(3,3-Difluoro-azetidine-1-carbonyl)-2-methyl-2H-pyrazole-3-carboxylic acid (2-phenyl-imidazo[1,2-a]pyrimidin-7-yl)-amide] | 35 nM
Cn1ncc(C(=O)NCCC(F)(F)F)c1C(=O)Nc1ccn2cc(-c3ccccc3)nc2n1 [Example 126, 1-methyl-N5-(2-phenylimidazo[1,2-a]pyrimidin-7-yl)-N4-(3,3,3-trifluoropropyl)-1H-pyrazole-4,5-dicarboxamide] | 24.7 nM
Cc1oc(C2CC2)nc1CNC(=O)c1cnn(C)c1C(=O)Nc1ccn2cc(-c3ccccc3)nc2n1 [Example 165, N4-((2-cyclopropyl-5-methyloxazol-4-yl)methyl)-1-methyl-N5-(2-phenylimidazo[1,2-a]pyrimidin-7-yl)-1H-pyrazole-4,5-dicarboxamide] | 776 nM
CC(C)N(C)C(=O)c1cnn(C)c1C(=O)Nc1ccn2cc(-c3ccccc3)nc2n1 [Example 54, 2-Methyl-2H-pyrazole-3,4-dicarboxylic acid 4-(isopropyl-methyl-amide) 3-[(2-phenyl-imidazo[1,2-a]pyrimidin-7-yl)-amide]] | 34.3 nM
Cn1ncc(C(=O)NCc2noc(C3CC3)n2)c1C(=O)Nc1ccn2cc(-c3ccccc3)nc2n1 [Example 166, N4-((5-cyclopropyl-1,2,4-oxadiazol-3-yl)methyl)-1-methyl-N5-(2-phenylimidazo[1,2-a]pyrimidin-7-yl)-1H-pyrazole-4,5-dicarboxamide] | 812 nM
CN(C)C(=O)c1cnn(C)c1C(=O)Nc1ccn2cc(-c3cccc(OCF)c3)nc2n1 [Example 88, 2-Methyl-2H-pyrazole-3,4-dicarboxylic acid 4-dimethylamide 3-{[2-(3-fluoromethoxy-phenyl)-imidazo[1,2-a]pyrimidin-7-yl]-amide}] | 5.7 nM

More lines, in order of falling IC50, values ahead:

IC50 | SMILES
963 nM | Cn1cc2c(n1)CN(C(=O)c1cnn(C)c1C(=O)Nc1ccn3cc(-c4ccccc4)nc3n1)C2 [Example 169, 1-methyl-4-(2-methyl-2,4,5,6-tetrahydropyrrolo[3,4-c]pyrazole-5-carbonyl)-N-(2-phenylimidazo[1,2-a]pyrimidin-7-yl)-1H-pyrazole-5-carboxamide]
553 nM | O=C(Nc1ccn2cc(-c3ccccc3)nc2n1)c1ccnc(Cl)c1 [Example 19, 2-Chloro-N-(2-phenyl-imidazo[1,2-a]pyrimidin-7-yl)-isonicotinamide]
364 nM | COc1cccc(-c2cn3ccc(NC(=O)c4c(C(=O)N(C)CCF)cnn4C)nc3n2)c1 [Example 111, 2-Methyl-2H-pyrazole-3,4-dicarboxylic acid 4-[(2-fluoro-ethyl)-methyl-amide]3-{[2-(3-methoxy-phenyl)-imidazo[1,2-a]pyrimidin-7-yl]amide}]
244 nM | Cn1ncc(C(=O)NCc2ccncc2)c1C(=O)Nc1ccn2cc(-c3ccccc3)nc2n1 [Example 148, 1-methyl-N5-(2-phenylimidazo[1,2-a]pyrimidin-7-yl)-N4-(pyridin-4-ylmethyl)-1H-pyrazole-4,5-dicarboxamide]
105 nM | CCC(C)n1ncc(Cl)c1C(=O)Nc1ccn2cc(-c3ccccc3)nc2n1 (stereo not drawn) [Example 11, 2-sec-Butyl-4-chloro-2H-pyrazole-3-carboxylic acid (2-phenyl-imidazo[1,2-a]pyrimidin-7-yl)-amide]
80.6 nM | CC(C)NC(=O)c1cnn(C)c1C(=O)Nc1ccn2cc(-c3ccccc3)nc2n1 [Example 60, 2-Methyl-2H-pyrazole-3,4-dicarboxylic acid 4-isopropylamide 3-[(2-phenyl-imidazo[1,2-a]pyrimidin-7-yl)-amide]]
24.4 nM | CCNC(=O)c1cnn(C)c1C(=O)Nc1ccn2cc(-c3ccccc3)nc2n1 [Example 50, 2-Methyl-2H-pyrazole-3,4-dicarboxylic acid 4-ethylamide 3-[(2-phenyl-imidazo[1,2-a]pyrimidin-7-yl)-amide]]
24 nM | COC(=O)c1[nH]nnc1C(=O)Nc1ccn2cc(-c3ccccc3)nc2n1 [Example 26, 5-(2-Phenyl-imidazo[1,2-a]pyrimidin-7-ylcarbamoyl)-3H-[1,2,3]triazole-4-carboxylic acid methyl ester]
17.3 nM | CCCN(C)C(=O)c1cnn(C)c1C(=O)Nc1ccn2cc(-c3ccccc3)nc2n1 [Example 56, 2-Methyl-2H-pyrazole-3,4-dicarboxylic acid 4-(methyl-propyl-amide) 3-[(2-phenyl-imidazo[1,2-a]pyrimidin-7-yl)-amide]]
16.9 nM | Cn1ncc(C(=O)NCc2ncco2)c1C(=O)Nc1ccn2cc(-c3ccccc3)nc2n1 [Example 122, 1-methyl-N4-(oxazol-2-ylmethyl)-N5-(2-phenylimidazo[1,2-a]pyrimidin-7-yl)-1H-pyrazole-4,5-dicarboxamide]
8.3 nM | CC(=O)Oc1cccc(-c2cn3ccc(NC(=O)c4c(C(=O)N(C)C)cnn4C)nc3n2)c1 [Example 93, 3-(7-(4-(dimethylcarbamoyl)-1-methyl-1H-pyrazole-5-carboxamido)imidazo[1,2-a]pyrimidin-2-yl)phenyl acetate]
4 nM | COc1cccc(-c2cn3ccc(NC(=O)c4c(C(=O)N(C)C)cnn4C)nc3n2)c1 [Example 85, 2-Methyl-2H-pyrazole-3,4-dicarboxylic acid 4-dimethylamide 3-{[2-(3-methoxy-phenyl)-imidazo[1,2-a]pyrimidin-7-yl]-amide}]
3.4 nM | Cn1ncc(C(=O)N2CCC2)c1C(=O)Nc1ccn2cc(-c3cccc(O)c3)nc2n1 [Example 83, 4-(Azetidine-1-carbonyl)-2-methyl-2H-pyrazole-3-carboxylic acid [2-(3-hydroxy-phenyl)-imidazo[1,2-a]pyrimidin-7-yl]-amide]
